Positions of bridges follow the written chain, without caps; N, C: chain ends. No end group written: not given here.
Columns and labels:
FXIIa = biological target: T1, FXIIa (Homo sapiens, UniProt P00748); test: Enzyme kinetics, chromogenic substrate, FXIIa; format: biochemical; conditions: sample 10 μM
T1 sequence (P00748 373-615 limits assumed): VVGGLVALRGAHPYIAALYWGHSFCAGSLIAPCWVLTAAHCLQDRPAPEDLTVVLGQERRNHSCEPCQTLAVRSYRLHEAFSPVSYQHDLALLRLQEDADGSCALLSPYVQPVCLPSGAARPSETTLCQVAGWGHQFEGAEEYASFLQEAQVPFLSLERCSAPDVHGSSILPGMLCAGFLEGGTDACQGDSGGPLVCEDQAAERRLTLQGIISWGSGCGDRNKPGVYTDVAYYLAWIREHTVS
Method: (§1) In a 96-well plate, 10 μL of the sample and 10 μL of FXIIa with a final concentration of 0.2 μM were mixed in 40 μL of buffer (100 mM NaCl, 50 mM Tris-HCl (pH 8.0), 5 mM CaCl2), allowed to stand at room temperature for 5 min. A mixture of 30 μL of buffer and 10 μL of chromogenic substrate with a final concentration of 0.04 mM was added to each well, the final volume was 100 μL. The kinetics of the coagulation reaction was measured using an Epoch (BioTek) microplate reader and GEN CHS 1.09 software, OD 405 nm, 20 min, with 47 s intervals. The concentration of the sample was 10 μM.

kallikrein = test: Enzyme kinetics, kallikrein; format: biochemical
Method: [Worded in the source for another target; this target is reported under the same test.] as §1

thrombin = thrombin (Homo sapiens, UniProt P00734); test: Enzyme kinetics, thrombin; format: biochemical; conditions: sample 10 μM
plasminogen = test: Enzyme kinetics, plasminogen; format: biochemical; conditions: sample 10 μM
FXa = FXa (Homo sapiens, UniProt P00742); test: Enzyme kinetics, FXa; format: biochemical; conditions: sample 10 μM
FXa, sequence (P00742 235-488 limits assumed): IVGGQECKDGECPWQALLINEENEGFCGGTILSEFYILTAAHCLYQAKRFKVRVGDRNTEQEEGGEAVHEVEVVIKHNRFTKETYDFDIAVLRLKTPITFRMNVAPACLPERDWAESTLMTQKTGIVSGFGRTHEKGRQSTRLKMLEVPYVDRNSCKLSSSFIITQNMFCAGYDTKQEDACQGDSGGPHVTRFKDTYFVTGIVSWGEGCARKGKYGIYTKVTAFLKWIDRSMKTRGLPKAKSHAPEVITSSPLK
FXa, sequence (P00742 41-179 partner limits assumed): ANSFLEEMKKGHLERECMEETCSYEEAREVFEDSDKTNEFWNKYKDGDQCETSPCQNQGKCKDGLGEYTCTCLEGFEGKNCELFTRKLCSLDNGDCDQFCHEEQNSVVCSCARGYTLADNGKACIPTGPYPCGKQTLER

[1] = test system: endogenous coagulation pathway (normal plasma); test: APTT experiment; conditions: OD 650 nm
Method: (§2) The APTT reagent was equilibrated to room temperature and the APTT reagent was mixed by gentle inversion; 50 μL of the reagent, 50 μL of normal plasma and 5 μL of the sample were mixed and incubated in a 37° C. water bath for 3 min; 50 μL of pre-warmed CaCl2 solution was added, mixed immediately; the OD 650 nm was detected with a microplate reader. PT experiment: prothrombin reagent was pre-warmed at 37° C. for 15 min; 50 μL of normal plasma and 5 μL of the sample were incubated in a 37° C. water bath for 3 min; 100 μL of pre-warmed prothrombin reagent was added, mixed immediately; OD 650 nm was detected with a microplate reader.

normal plasma = test: PT experiment; conditions: OD 650 nm
Method: as §2

tail thrombosis = test: Carrageenan-induced rat tail thrombosis model; format: in vivo, Kunming mice; conditions: for effect on tail thrombosis (average length of thrombus) compared with control group: each time point 12, 24, 36, 48 h, Sylvestin 2 and 4 mg/kg, heparin sodium 500 U/mouse, t-test p<0.05
Method: [Worded in the source for another organism; this organism is reported under the same test.] Kunming mice were used as experimental animals, body weight 25 to 30 g (provided by the Experimental Animal Center of Kunming Medical College). After one week of housing, they were randomly divided into groups (n=6), half male and half female. One group was a physiological saline control group, the sample groups were Sylvestin synthesized in Example 2 at a dose of 2 mg/kg and 4 mg/kg, respective, and the positive control was given heparin sodium (Beijing Dingguo Changsheng Biotechnology Co., Ltd.), 500 U/mouse. 30 minutes after tail vein administration, carrageenan (carrageenan, type I, Sigma, dissolved in physiological saline to a concentration of 1%) was injected from the abdomen of the mice at a dose of 60 mg/kg, since the thrombosis rate was >90% in a low temperature environment, the housing temperature was set at 17.5° C. After 12, 24, 36, and 48 h, the average length of thrombus was determined according to the color change of the tail skin. Referring to FIG. 1, the average length of thrombus in each group increased with time. […] Data processing was Graphpad Prime 5, data mean±SD, t-test (*p<0.05).

[2] = test system: cerebral ischemia and reperfusion injury; test: Acute cerebral ischemic intraluminal thread model; format: in vivo, Kunming mice; conditions: 1, 3, 5 mg/kg i.v. tail vein; 1 h ischemia, assessed at 24 h
Method: Kunming mice (30 to 35 g) were anesthetized with 2% sodium pentobarbital (80 mg/kg). After medium-deep anesthesia, a midline neck incision was made, the skin and subcutaneous tissue of the mice were incised layer by layer, the sternocleidomastoid muscle was separated, the anterior belly of the digastric muscle was incised off, the right common carotid artery (CCA), internal carotid artery (ICA) and external carotid artery (ECA) were exposed, an electric coagulator was used to coagulate thyroid artery and pharyngeal artery over the ECA and they were cut off. Ligation of the distal end of the ECA was performed, seton was placed at the proximal end, CCA and ICA were temporarily closed using a clip, the ECA was cut off, an intraluminal thread was inserted into the ICA from the ECA stump, ligation of the ECA stump was performed, the artery clip of the ICA was removed, pushed inward and upward from the ICA. […] Cerebral ischemia for 24 h, and the neurological deficit score was assessed and recorded according to the Bederson Scale assessment: 0 is no dysfunction; 1 is being unable to extend the right forelimb; 2 is rotating to right; 3 is dumping to right; 4 is no autonomous activity with disturbance of consciousness; 5 is death. […]

[3] = Isoelectric focusing electrophoresis; format: physicochemical
Method: 3.3 The purity of the purified Haemadipsa sylvestris antithrombotic peptide was determined by HPLC, the molecular weight was determined by fast atom bombardment mass spectrometry, the isoelectric point was determined by isoelectric focusing electrophoresis, and the amino acid sequence was determined by automatic amino acid sequencer.

| Substance | inhibitory effect on FXIIa (FXIIa) | Ki (kallikrein; read-out: inhibition constant on kallikrein) | inhibitory effect on kallikrein (kallikrein; sample 10 μM) | inhibitory effect on thrombin (thrombin) | inhibitory effect on plasminogen (plasminogen) | inhibitory effect on FXa (FXa) | effect in APTT experiment [1] | effect in PT experiment (normal plasma) | inhibition rate against thrombus versus dose (tail thrombosis; 2 mg/kg and 4 mg/kg) | inhibition rate against thrombosis over time (tail thrombosis; 12 to 48 h) | change of length of thrombus from 12 h to 24 h (tail thrombosis) | inhibitory effect on thrombosis compared with control group after 48 h (tail thrombosis; 48 h, tail vein) | effect on tail thrombosis (average length of thrombus) compared with control group (tail thrombosis; tail vein) | injury caused by cerebral ischemia and reperfusion (Bederson score, ischemic volume) [2] | isoelectric point [3] |
| --- | --- | --- | --- | --- | --- | --- | --- | --- | --- | --- | --- | --- | --- | --- | --- |
| TSEPVCACPKMLFWVCGKDGETYTHPCIAKCHNVEVEHDGKCK (disulfide 6-31, 8-27, 16-42) [Sylvestin] | can inhibit | 17.8 nM | can inhibit | no inhibitory effect | no inhibitory effect | no inhibitory effect | concentration-dependent effect | no effect | increased as concentration increased | decreased over time | increased slightly | significant inhibitory effect | statistically significant | effectively alleviate the injury | 6.28 |
| heparin sodium [reference compound] | – | – | – | – | – | – | – | – | – | – | doubled | – | statistically significant | – | – |
